Test results: patent publication US20260308159A1, “BICYCLIC HETEROARYLAMIDES HAVING GPR68 MODULATING ACTIVITY” (RECURSION PHARMACEUTICALS, INC., priority 2023, published 2026)

biological target: T1, human GPR68 (Homo sapiens, UniProt Q15743); experiment: GPR68 Biochemical Assay (Promega GloSensor cAMP assay, GPR68 antagonism); type: cell-based; details: HEK293T cells transiently expressing hGPR68, antagonism of pH 5.5 stimulated cAMP, 15 min, read-out: hGPR68 IC50
T1 construct: encoding full-length human GPR68 (uniprot ID: Q15743); expressed in transfected cells; host or cells: HEK293T
T1 sequence (Q15743 whole entry): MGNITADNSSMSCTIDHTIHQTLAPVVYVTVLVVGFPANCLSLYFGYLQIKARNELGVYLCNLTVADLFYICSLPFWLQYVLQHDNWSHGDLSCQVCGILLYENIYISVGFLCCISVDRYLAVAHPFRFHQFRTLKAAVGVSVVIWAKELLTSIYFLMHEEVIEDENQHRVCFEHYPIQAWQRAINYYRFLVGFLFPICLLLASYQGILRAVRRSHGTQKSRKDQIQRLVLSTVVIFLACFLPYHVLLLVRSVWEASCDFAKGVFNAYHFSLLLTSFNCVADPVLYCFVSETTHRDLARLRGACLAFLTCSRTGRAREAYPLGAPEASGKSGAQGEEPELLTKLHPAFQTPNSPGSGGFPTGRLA
Experimental: GPR68 antagonism was determined using the Promega GloSensor™ CAMP assay (F. I. Wang et al., Methods 2021, S1046-2023 (21) 00249-8). HEK293T cells (obtained from ECACC, Cat 12022001, Lot no. 17E044) were cultured in T175 flasks (Greiner, Cat 660175) in DMEM (Gibco, Cat 11995-065) supplemented with 10% Fetal Bovine Serum (Gibco Cat 16000-044), and 100 u/mL Pen-Strep (Gibco, Cat 15140) at 37° C. and 5% CO2. GPR68 expression was achieved by transient transfection with a mammalian expression plasmid encoding full-length human GPR68 (uniprot ID: Q15743) under control of a CMV promoter. The day before transfection, cell media was aspirated and HEK293T cells were incubated with accutase (Sigma, Cat A6964) for 3-4 minutes 37° C. and 5% CO2 before being manually detached with excess DMEM and trituration. Cell density was determined by automated cell counting (Countess, Invitrogen) and adjusted to 6×10^6 cells/20 mL and transferred to 15 cm dishes (Thermo Fisher, Cat 130183) for overnight incubation at 37° C. and 5% CO2. The next day separate mammalian expression plasmids encoding hGPR68 (4 μg) and Promega GloSensor (8 μg) were diluted to 1 mL in Opti-MEM (Thermo Fisher Scientific, Cat 31985070) and incubated with 30 μL of lipofectamine 3000 (also diluted to 1 mL in Opti-MEM) for 15 minutes at room temperature and subsequently added dropwise to the plated cells. Post transfection cells were then incubated at 37° C. and 5% CO2 for at least 16 hours before transfer to assay plates the following day. Transfer was conducted by washing cells with PBS and incubating with accutase for 3-4 minutes 37° C. and 5% CO2 before being manually detached with excess DMEM and mild trituration. The suspension was then centrifuged at 192 RCF for 4 minutes in a 50 mL centrifuge tube (Greiner, Cat 227261).
Supernatant was removed by aspiration and the cell pellet was resuspended in DMEM+1% dialysed FBS (Gibco, Cat 26400-044) and 100 u/mL Pen-Strep to a cell density of 500 cells/μL. Cells were plated into poly-L-Lysine coated 384-well white assay plates (Corning, Cat 3570) at a final volume of 40 µL and a density of 20,000 cells/well before overnight incubation at 37° C. and 5% CO2. The following day media was manually ejected from the 384-well assay plate and replaced with 10 μL GloSensor substrate (Promega, Cat E1291) prepared in pH 8.0 assay buffer (1×HBSS, 10 mM HEPES, 10 mM MOPS). Cells were incubated with this solution for 60 minutes at room temperature in the dark. Test compounds or an equivalent volume of DMSO (vehicle) were added to compounds plates to create a 9-point, half-log concentration series for each compound with a maximum final assay concentration of 50 μM and a consistent final DMSO concentration of 0.5%. Assay buffer with 0.1% BSA and 0.01% ascorbic acid was prepared at three pHs: pH 8.0, pH 5.5 and pH 4.5. pH 8.0 and 4.5 were added to the compound plate as maximum and minimum effect controls whilst pH 5.5 was added to all compound wells to stimulate GPR68 to a level corresponding to […] of maximal stimulation after addition to the cells already in pH 8.0 (assay acceptance criteria range 70-90%). DMSO/Compound and buffer was added to the plated cells containing the GloSensor substrate and incubated for 15 minutes at room temperature before being read on a microplate reader (BMG PHERAstar, optic module LUM Plus with Gain 3600). Data was exported and analysed in excel and Graphpad prism (version 9). Assay QC acceptance criteria required the maximum and minimum controls to return a Z′≥0.5, the EC80 to be 80%±10% of expected and the reference ligand pIC50 to be within one-half-log unit of its historical IC50. Percent inhibition was calculated using the mean EC80 (pH 5.5) and mean minimum effect control (pH 8.0). Data were plotted as percentage inhibition, average±SEM. IC50, Emax, Emin, Actual max, actual min, R^2 and fit confidence were calculated using Graphpad Prism's sigmoidal dose-response function.

Row | SMILES | IC50 [nM]
1 | COCc1nn2c(C(=O)NC3CC(F)(F)c4ccc(F)cc43)ccnc2c1C(N)=O (stereo not drawn) [Compound 237, 2-(Methoxymethyl)-N7-(3,3,6-trifluoroindan-1-yl)pyrazolo[1,5-a]pyrimidine-3,7-dicarboxamide] | < 50
2 | NC(=O)c1cnn2c(C(=O)NC3Cc4cccc(Cl)c4C3)ccnc12 (stereo not drawn) [Compound 4, N7-(4-chloroindan-2-yl)pyrazolo[1,5-a]pyrimidine-3,7-dicarboxamide] | 50 to 500
3 | Cc1cc(C(=O)NC2CC(F)(F)C2)n2nc(C)c(C(N)=O)c2n1 [Compound 42, N7-(3,3-difluorocyclobutyl)-2,5-dimethyl-pyrazolo[1,5-a]pyrimidine-3,7-dicarboxamide] | 50 to 500
4 | COCc1nn2c(C(=O)NC3Cc4cccc(F)c4C3)ccnc2c1C(N)=O (stereo not drawn) [Compound 91, N7-(4-fluoroindan-2-yl)-2-(methoxymethyl)pyrazolo[1,5-a]pyrimidine-3,7-dicarboxamide] | < 50
5 | COCc1nn2c(C(=O)NC(c3ccc(F)cc3)C(F)(F)F)ccnc2c1C(N)=O (stereo not drawn) [Compound 125, 2-(methoxymethyl)-N7-[2,2,2-trifluoro-1-(4-fluorophenyl)ethyl]pyrazolo[1,5-a]pyrimidine-3,7-dicarboxamide] | 500 to 5000
6 | COCc1nn2c(C(=O)Nc3cc(C(F)(F)F)ccn3)ccnc2c1C(N)=O [Compound 65, 2-(Methoxymethyl)-N7-[4-(trifluoromethyl)-2-pyridyl]pyrazolo[1,5-a]pyrimidine-3,7-dicarboxamide] | 50 to 500
7 | COCc1nn2c(C(=O)N3Cc4ccccc4C3)ccnc2c1C(N)=O [Compound 95, 7-(isoindoline-2-carbonyl)-2-(methoxymethyl)pyrazolo[1,5-a]pyrimidine-3-carboxamide] | 500 to 5000
8 | Cc1nn2c(C(=O)NC3CC(F)(F)C3)ccnc2c1C(N)=O [Compound 48, N7-(3,3-difluorocyclobutyl)-2-methyl-pyrazolo[1,5-a]pyrimidine-3,7-dicarboxamide] | 50 to 500
9 | NC(=O)c1c(C2CC2)nn2c(C(=O)NC3CCC(F)(F)CC3)ccnc12 [Compound 135, 2-cyclopropyl-N7-(4,4-difluorocyclohexyl)pyrazolo[1,5-a]pyrimidine-3,7-dicarboxamide] | < 50
10 | COCc1nn2c(C(=O)NC3Cc4cscc4C3)ccnc2c1C(N)=O [Compound 85, N7-(5,6-dihydro-4H-cyclopenta[c]thiophen-5-yl)-2-(methoxymethyl)pyrazolo[1,5-a]pyrimidine-3,7-dicarboxamide] | < 50
11 | Cc1cc(C(=O)NC2CCS(=O)(=O)c3ccccc32)n2nc(C3CC3)c(C(N)=O)c2n1 (stereo not drawn) [Compound 242, 2-cyclopropyl-N7-(1,1-dioxo-3,4-dihydro-2H-thiochromen-4-yl)-5-methyl-pyrazolo[1,5-a]pyrimidine-3,7-dicarboxamide] | < 50
12 | COCc1nn2c(C(=O)NCC3(N(C)C)CCCCC3)ccnc2c1C(N)=O [Compound 90, N7-[[1-(dimethylamino)cyclohexyl]methyl]-2-(methoxymethyl)pyrazolo[1,5-a]pyrimidine-3,7-dicarboxamide] | 50000 to 100000
13 | COCc1nc2c(C(=O)NC3Cc4cc(F)cc(F)c4C3)ccnn2c1C(N)=O (stereo not drawn) [Compound 164, N8-(4,6-difluoroindan-2-yl)-2-(methoxymethyl)imidazo[1,2-b]pyridazine-3,8-dicarboxamide] | < 50
14 | COCc1nn2c(C(=O)NC3CCC(F)(F)CC3F)ccnc2c1C(N)=O (mixture of isomers) [Compound 154, 2-(methoxymethyl)-N7-(2,4,4-trifluorocyclohexyl)pyrazolo[1,5-a]pyrimidine-3,7-dicarboxamide] | 50 to 500
15 | NC(=O)c1cnn2c(C(=O)NCCC(F)(F)F)ccnc12 [Compound 100, N7-(3,3,3-trifluoropropyl)pyrazolo[1,5-a]pyrimidine-3,7-dicarboxamide] | 5000 to 50000
16 | CSCc1nn2c(C(=O)NC3Cc4ccccc4C3)ccnc2c1C(N)=O [Compound 214, N7-indan-2-yl-2-(methylsulfanylmethyl)pyrazolo[1,5-a]pyrimidine-3,7-dicarboxamide] | < 50
17 | NC(=O)c1c(C2CC2)nn2c(C(=O)NC3Cc4ccccc4C3)ccnc12 [Compound 130, 2-cyclopropyl-N7-indan-2-yl-pyrazolo[1,5-a]pyrimidine-3,7-dicarboxamide] | < 50

Now from value to compound:

Row | IC50 [nM] | SMILES
18 | < 50 | NC(=O)c1c(C2CC2)nn2c(C(=O)N[C@@H]3CCS(=O)(=O)c4ccccc43)ccnc12 [Compound 235, 2-cyclopropyl-N7-[(4R)-1,1-dioxo-3,4-dihydro-2H-thiochromen-4-yl]pyrazolo[1,5-a]pyrimidine-3,7-dicarboxamide]
19 | 500 to 5000 | COCc1nn2c(C(=O)NCc3ccc(O)cc3)ccnc2c1C(N)=O [Compound 197, N7-[(4-hydroxyphenyl)methyl]-2-(methoxymethyl)pyrazolo[1,5-a]pyrimidine-3,7-dicarboxamide]
20 | 500 to 5000 | NC(=O)c1c(-c2ncco2)nn2c(C(=O)NC3CC(F)(F)C3)ccnc12 [Compound 25, N7-(3,3-difluorocyclobutyl)-2-oxazol-2-yl-pyrazolo[1,5-a]pyrimidine-3,7-dicarboxamide]
21 | < 50 | COCc1nn2c(C(=O)N[C@H]3COc4ccc(F)cc43)ccnc2c1C(N)=O [Compound 120, N7-[(3R)-5-fluoro-2,3-dihydrobenzofuran-3-yl]-2-(methoxymethyl)pyrazolo[1,5-a]pyrimidine-3,7-dicarboxamide]
22 | 50000 to 100000 | NC(=O)c1cnn2c(C(=O)NC3CCc4ccncc4C3)ccnc12 (stereo not drawn) [Compound 13, N7-(5,6,7,8-tetrahydroisoquinolin-7-yl)pyrazolo[1,5-a]pyrimidine-3,7-dicarboxamide]
23 | < 50 | COCc1nn2c(C(=O)N[C@@H]3CCS(=O)(=O)c4ccccc43)ccnc2c1C(N)=O [Compound 233, N7-[(4R)-1,1-dioxo-3,4-dihydro-2H-thiochromen-4-yl]-2-(methoxymethyl)pyrazolo[1,5-a]pyrimidine-3,7-dicarboxamidfe]
24 | < 50 | COCc1nn2c(C(=O)NC3CCC(F)(F)c4cc(F)ccc43)ccnc2c1C(N)=O (stereo not drawn) [Compound 239, 2-(methoxymethyl)-N7-(4,4,6-trifluorotetralin-1-yl)pyrazolo[1,5-a]pyrimidine-3,7-dicarboxamide]

same assay, conditions: hGPR68 IC50, HEK293T cells transiently expressing hGPR68, antagonism of pH 5.5 stimulated cAMP, 15 min

Row | IC50 [nM] | SMILES
25 | 50 to 500 | COCc1nn2c(C(=O)N[C@H]3C[C@](C)(F)C3)ccnc2c1C(N)=O [Compound 94, N7-(trans-3-fluoro-3-methyl-cyclobutyl)-2-(methoxymethyl)pyrazolo[1,5-a]pyrimidine-3,7-dicarboxamide]
26 | 500 to 5000 | NC(=O)c1c(C2CCOC2)nn2c(C(=O)NC3CC(F)(F)C3)ccnc12 (stereo not drawn) [Compound 45, N7-(3,3-difluorocyclobutyl)-2-tetrahydrofuran-3-yl-pyrazolo[1,5-a]pyrimidine-3,7-dicarboxamide]
27 | 50 to 500 | CC(C)(O)c1nn2c(C(=O)NC3CC(F)(F)C3)ccnc2c1C(N)=O [Compound 213, N7-(3,3-difluorocyclobutyl)-2-(1-hydroxy-1-methyl-ethyl)pyrazolo[1,5-a]pyrimidine-3,7-dicarboxamide]
